# From paper PMC6100113, “Involvement of CYP4F2 in the Metabolism of a Novel Monophosphate Ester Prodrug of Gemcitabine and Its Interaction Potential In Vitro” (Molecules : A Journal of Synthetic Chemistry and Natural …, 2018)
# Legend:
# alkaline phosphatase = assay: Hydrolysis of Compound-3 by alkaline phosphatase (gemcitabine formation); type: in vitro ADME; parameters: key to detected in matrix ALP: √: metabolites were detected by high-resolution mass spectrometry
# Experimental: Compound-3 was incubated with alkaline phosphatase, and the linearity of gemcitabine formation as a function of time and protein concentration was first examined. The reaction mixtures consisted of alkaline phosphatase, 100 mM phosphate buffer (pH 7.4) and Compound-3 (10 μM). The final volume of the incubation mixture was 200 μL. The mixture was warmed up at 37 °C for 2 min prior to the initiation of the reaction with the addition of the enzyme. At specified time points, 25 μL of the incubation mixtures was added to 100 μL cold acetonitrile containing the internal standard to terminate the reaction. Levels of gemcitabine were determined by LC-MS/MS. […] Compound-3 was tested at concentrations ranging from 0 to 200 μM. Kinetic parameters of Compound-3 in alkaline phosphatase were calculated using GraphPad Prism (Version 6.0, GraphPad Software Inc., San Diego, CA) and nonlinear regression analysis. Equation used was as the following (the Michaelis-Menten equation):V = (Vmax × [S])/(Km + [S])(1) where V is the rate of metabolite formation, Vmax is the maximum velocity, Km is the Michaelis constant (substrate concentration at 0.5 Vmax), and [S] is the substrate concentration.
# [1] = Metabolic stability in rat intestinal microsomes; type: in vitro ADME; settings: rat intestinal microsomes 0.2 mg/mL, with NADPH, 1 μM, 37 °C
# Experimental: Stability of Compound-3 was first investigated in microsomal systems from human and rat. The microsomal protein and Compound-3 concentrations were optimized to 0.2 mg/mL and 1 µM, respectively. Before the start of the incubation, reaction mixtures containing phosphate buffer (100 mM, pH 7.4), microsomes and Compound-3 in a total volume of 50 µL were warmed up at 37 °C for 10 min. The reaction was started with the addition of NADPH at a final concentration of 1 mM. Incubations were terminated at a specified time with the addition of 100 µL ice-cold acetonitrile containing the internal standard. The samples were then centrifuged, and aliquots of 10 µL of the supernatants were transferred into liquid chromatography-tandem mass spectrometry (LC-MS/MS) for the analysis of Compound-3 levels.
# [2] = system: H460 tumor xenograft (non-small cell lung cancer); settings: cited from earlier work
# CYP4F2 [3] = target: T1, CYP4F2 (Homo sapiens, UniProt P78329); assay: Formation kinetics of M4 (carboxylic acid) from Compound-3 by CYP4F2; type: in vitro ADME; settings: CYP4F2 10 nM, 10 min, uncompetitive substrate inhibition equation, estimated
# T1 construct: purchased Corning Gentest
# T1 sequence (P78329 5-520): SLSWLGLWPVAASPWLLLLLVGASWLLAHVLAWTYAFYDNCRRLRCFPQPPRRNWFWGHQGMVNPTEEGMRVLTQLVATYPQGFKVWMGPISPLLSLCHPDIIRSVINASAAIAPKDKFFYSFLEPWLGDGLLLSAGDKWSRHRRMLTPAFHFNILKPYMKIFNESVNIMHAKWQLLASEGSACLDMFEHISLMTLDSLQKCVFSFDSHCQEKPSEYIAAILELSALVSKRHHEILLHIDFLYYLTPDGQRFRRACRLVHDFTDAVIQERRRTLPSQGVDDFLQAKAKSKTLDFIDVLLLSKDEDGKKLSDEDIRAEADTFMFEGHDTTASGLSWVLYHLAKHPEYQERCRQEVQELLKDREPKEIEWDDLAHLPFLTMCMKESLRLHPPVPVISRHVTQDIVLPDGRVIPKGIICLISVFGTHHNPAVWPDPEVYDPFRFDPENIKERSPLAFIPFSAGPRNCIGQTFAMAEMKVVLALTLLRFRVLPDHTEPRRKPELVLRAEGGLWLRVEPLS
# Experimental: To investigate the formation kinetics of carboxylic acid metabolite (M4) from Compound-3, varying concentrations of Compound-3 (0–10 µM) were incubated with 10 nM CYP4F2 and 1 mM NADPH in 100 mM phosphate buffer (pH 7.4). The reactions were carried at 37 °C for 10 min and terminated with the addition of ice-cold acetonitrile containing the internal standard. Samples were then centrifuged, and aliquots of 10 μL of the supernatants were analyzed by LC-MS/MS for M4 levels.
# Kinetic parameters of Compound-3 in recombinant human CYP4F2 were calculated using Enzyme Kinetics Modules of SigmaPlot (Version 14.0, Systat Software, San Jose, CA, USA). An uncompetitive substrate inhibition equation was also used:V = (Vmax × [S])/{Km + [S] × (1 + [S]/Ki)}(2) where Ki is the disassociation constant describing the inhibitor-enzyme interaction.
# CYP4F2 [4] = target: T1, CYP4F2; assay: CYP4F2-mediated drug interaction (inhibition of CYP4F2); type: in vitro ADME; settings: substrate pafuramidine 1.5 μM, CYP4F2 10 nM, 5 min, DB775 formation; read-out: IC50, inhibition of CYP4F2 mediated metabolism of pafuramidine
# Experimental: CYP4F2-mediated drug interactions were examined in two separate setting: pafuramidine as the substrate and Compound-3 as the inhibitor; and Compound-3 as the substrate and pafuramidine as the inhibitor. The reaction system contained 10 nM CYP4F2, 100 mM phosphate buffer (pH 7.4), 1 mM NADPH, and substrate (pafuramidine 1.5 μM or Compound-3 1 μM). Inhibitor (Compound-3 or pafuramidine) concentrations ranged from 0 to 10,000 nM. The incubation time was 5 min for pafuramidine and 10 min for Compound-3. Incubation temperature was 37 °C. LC-MS/MS analysis was performed as described above for the levels of DB775 or M4 (carboxylic acid metabolite of Compound-3).
# [5] = Metabolic stability in human hepatocytes; type: in vitro ADME; settings: human hepatocytes 1 × 10^6 cell/mL, 1 μM, 37 °C
# Experimental: For stability evaluation in human hepatocytes, cryopreserved primary human hepatocytes were revived according to vendor’s protocol and diluted to a density of 1 × 10^6 cell/mL with William’s Medium. The reaction was started with the addition of Compound-3 (1 μM). At specified time points, aliquots of 25 μL of the reaction mixtures were transferred into 100 μL ice-cold acetonitrile containing the internal standard. The samples were then centrifuged, and aliquots of 10 μL of the supernatants were transferred onto LC-MS/MS for the analysis of Compound-3 levels and its metabolites.
# [6] = alkaline phosphatase 0.1 mg/mL protein, 60 min, 37 °C, Michaelis-Menten
smiles,measurement,setting,value
CCCCCCCCCCCCCCCCCCOCCOP(=O)(O)OCC1OC(n2ccc(N)nc2=O)C(F)(F)C1O (centres unmarked) [Compound-3],Km,alkaline phosphatase; [6],57.2 µM
same,Vmax of gemcitabine formation,alkaline phosphatase; [6],60.8 pmol/min/mg-protein
same,detected in matrix ALP,"alkaline phosphatase; incubation of Compound-3 with alkaline phosphatase, HRMS",√
same,disappearance in 60 min,[1],~ 20%
same,oral activity in tumor xenograft model,[2],orally active
same,Ki,CYP4F2 [3],1.2 nM
same,IC50,CYP4F2 [4],100 nM
same,disappearance after 60 min incubation,[5],~ 30%
